Measured values from patent US5004749A, “Concentrated aqueous solution of glutaraldehyde and 1,2-benzisothiazolin-3-one” (priority 1989, dated 1991).
Values after ≈ are worked out from the molar mass of the structure shown.

How the values were obtained:
[1] = physchem; assay type: physicochemical
Protocol: A pH 3.2 solution was attained by adding 12.5 ml of 0.2 M acetic acid to 100 ml of deionized water. The pH 4.8 solution was prepared by adding 22.5 ml of 0.2 M acetic acid plus 27.5 ml of 0.2 M sodium acetate brought to a total volume of 100 ml with deionized water. Finally the pH of 6.8 solution was created by adding 4.1 ml of 0.2 M sodium acetate plus 1 drop of 0.2 M acetic acid to 100 ml of deionized water. […] Employing the same buffering agents, solutions with 50% aqueous glutaraldehyde were prepared having pH's of 3.2, 4.8 and 6.8 respectively. A twenty ml solution having a pH of 3.2 was attained with 1.45 ml of acetic acid; the twenty ml solution having a pH of 4.8 contained acetic acid and sodium acetate in a 3:1 weight ratio and the twenty ml solution having a pH of 6.8 contained 1.25 g of sodium acetate. The solubility of BIT in each solution was determined as described above.

[2] = assay type: physicochemical
Protocol: In order to compare the composition of the present invention with that disclosed in U.S. Pat. No. 4,539,071 (Clifford et al) a stable aqueous composition of isothiazolone, the following experiment was performed. To deionized water were added 0.2 percent cupric nitrate, 9 percent magnesium chloride and 15 percent magnesium nitrate, all in percent by weight.

[3] = test system: Acinetobacter calcoaceticus, Pseudomonas aeruginosa, Enterobacter cloacae and Escherichia coli; experiment: MIC in calcium carbonate slurry, inoculated weekly, reduction to less than ten colony forming units/ml (Example 3); assay type: cell-based; conditions: for MIC: Calcium Carbonate Slurry
Protocol: Several forty gram samples of a calcium carbonate slurry (Gamma-Fil 90, available from the Georgia Marble Company) which were free of microbial growth, were prepared. These samples were divided into four groups. The first group was dosed with varying amounts of glutaraldehyde (in the form of a 50 percent aqueous solution); the second group was dosed with varying amounts of 1,2-benzisothiazolin-3-one the third group was dosed with varying amounts of glutaraldehyde (in the form of a 50 percent aqueous solution) and of 1,2-benzisothiazolin-3-one (in the form of Proxel® Press Paste) in a 14:1 ratio by weight of glutaraldehyde:BIT a fourth group was left untreated as a control. These samples were each inoculated three times on a weekly basis with an inoculum which contained the following microorganisms: Acinetobacter calcoaceticus, Pseudomonas aeruginosa, Enterobacter cloacae and Escherichia coli. The minimum inhibitory concentration (MIC) values were determined for preservative levels effective in reducing the contaminating microorganisms to less than ten colony forming units/ml for the first three groups. The number of colony forming units/ml in the control group was also determined.
(§1) The results for Examples 3 and 4 were quantified with respect to the synergy shown through the application of an equation described in Berenbaum, M.C. "A method for Testing for Synergy with Any Number of Agents" The Journal of Infectious Diseases, Vol 137, No. 2 pp 122-130 (February, 1978). The relevant equation is as follows: [formula]
(§2) If Z is less than 1, synergy is present. If Z equals 1, additive interaction is present. If Z is greater than 1, an antagonistic interaction is present.

[4] = test system: microbial contamination; experiment: MIC in kaolin slurry with significant microbial spoilage, reduction to less than ten colony forming units/ml (Example 4); assay type: cell-based
Protocol: A sample of kaolin slurry with significant microbial spoilage was dosed with a range of concentrations of 1,2-benzisothiazolin-3-one, glutaraldehyde, and 1,2-benzisothiazolin-3-one plus glutaraldehyde (1:14 weight ratio). A sample was included, antimicrobial free, for control purposes with determinations of the colony forming units/ml. MIC values (in parts per million of Active Ingredient) to reduce microbial contamination to less than ten colony forming units/ml were determined by the absence of detectable growth by dilution plate counts.
as §1, §2

Row | Compound | solubility of 1,2-benzisothiazolin-3-one is increased by the addition of glutaraldehyde [1] | solubility ([1]; buffered 50% aqueous glutaraldehyde, pH 3.2) | solubility ([1]; buffered 50% aqueous glutaraldehyde, pH 4.8) | solubility ([1]; buffered 50% aqueous glutaraldehyde, pH 6.8) | solubility ([1]; buffered deionized water, pH 3.2) | solubility ([1]; buffered deionized water, pH 4.8) | solubility ([1]; buffered deionized water, pH 6.8) | solubility of 1,2-benzisothiazolin-3-one [2] | MIC ([3]; Week 1) | MIC ([3]; Week 2) | MIC ([3]; Week 3) | MIC ([4]; 24 h, 1 day) | MIC ([4]; 48 h, 2 days) | MIC ([4]; 72 h, 3 days) | MIC ([4]; 168 h, 7 days) | antimicrobial activity/potency on repeated challenge (in words) ([3]; calcium carbonate slurry, second and third challenges with microbial insults)
1 | O=c1[nH]sc2ccccc12 [BIT, 1,2-benzisothiazolin-3-one] | increased considerably | 31.8 mg/mL (≈ 210 mM) | 33.8 mg/mL (≈ 224 mM) | 30.4 mg/mL (≈ 201 mM) | 3.2 mg/mL (≈ 21.2 mM) | 1.1 mg/mL (≈ 7.28 mM) | 0.4 mg/mL (≈ 2.65 mM) | essentially nil | 285 µg/mL | > 570 µg/mL | 380 µg/mL | 178 µg/mL | > 178 µg/mL | > 178 µg/mL | 133 µg/mL | –
2 | O=CCCCC=O [Glutaraldehyde, glutaraldehyde] | – | – | – | – | – | – | – | – | 250 µg/mL | 500 µg/mL | 500 µg/mL | 250 µg/mL | 150 µg/mL | 200 µg/mL | 250 µg/mL | undergoes a reduction in antimicrobial activity
